According to article PMC12426930, “Antioxidant, Hypotensive, and Antidiabetic Breakthroughs: Bromelain Hydrolysis Unlocks Quinoa’s Peptide Potential - In Silico and In Vitro Approach” (Journal of Agricultural and Food Chemistry, 2025):
Several values for one entry are separate records, joined by “and”; a condition that tells them apart may be missing. Equal values may be shown once. Entries after “also recorded” stand apart in the source; their conditions may differ. Marks after values point to notes of the source that are not given here. One block for each molecule: values may come before it.

How the values were obtained:
[1] = test system: porcine pancreatic α-amylase (PPA); test: α-Amylase inhibition; assay type: biochemical; conditions: CNPG3 substrate, 405 nm, 37 °C, mean ± SD, n = 9
Experimental: α-Amylase inhibition activity was performed using the 3,5-dinitrosalicylic acid (DNS) assay according to Zulfiqar et al. […] Then, 50 μL of substrate (2-chloro-4-nitro-[…] (CNPG3) (2 mM)) was added per well. Finally, absorbance was recorded at 405 nm (SPARK-10M, TECAN, Switzerland) at 37 °C for 10 min in 1-min intervals. The percentage of enzyme inhibition was calculated in relation to 100% enzymatic activity in the negative control (phosphate-buffered saline (PBS) buffer, enzyme, and substrate).

[2] = test system: rat intestinal acetone α-glucosidase; test: α-Glucosidase inhibition; assay type: biochemical; conditions: 2 mM maltose, pH 6.9, 37 °C, mean ± SD, n = 9
Experimental: α-Glucosidase inhibition assay was measured following the method of Vilcacundo et al., with slightly modifications. First, 100 μL of sample ([…]), positive control (1 mM acarbose), and/or negative control (Milli-Q-water), were added to 50 μL of rat intestinal acetone α-glucosidase (1 U/mL in 0.1 M, maleate buffer pH 6.9), and the mixture was incubated at 37 °C for 5 min. Then, 50 μL of substrate (2 mM maltose) was added into each tube, which was performed in a Thermomixer (37 °C, 1000 rpm, for 30 min). Finally, the reaction was stopped at 100 °C for 5 min. The glucose concentration in the reaction was measured using GOPOD (glucose oxidase/peroxidase) from Megazyme, with absorbance measured at 560 nm (Gen5 software, version 1.1, BioTek Instruments, Winooski, VT, USA). The percentage of inhibition was calculated relative to the non-inhibited control (negative control).

human DPP-IV = test: DPP-IV inhibitory activity; assay type: biochemical; conditions: H-Gly-Pro-pNA, 37 °C, mean ± SD, n = 9
Experimental: Dipeptidyl peptidase-IV (DPP-IV) inhibitory activity was measured following the method by Vilcacundo et al., with slightly modifications. […] For the negative control 70 μL of Tris Buffer was added. Finally, 100 μL of substrate (H-Gly-Pro-pNA, 100 mM) was added to all wells. The reaction was performed at 37 °C in the microplate reader (BioTek Instruments, Winooski, VT, USA), and the reaction was read at 405 nm for 30 min, with reading intervals of 2 min. Finally, data were plotted and fitted to a logarithmic regression to obtain dose–response curves.

[3] = Oxygen radical absorbance capacity (ORAC) assay; conditions: AAPH, fluorescein, 37 °C, 150 min
Experimental: Oxygen radical absorbance capacity (ORAC) assay was performed following the method of Carvalho-Oliveira et al. Briefly, 30 μL of peptide (different concentrations 50–1000 μM) or standard (Trolox at 0–160 μM) were placed in a black 96-well plate. The reaction mixture comprised 180 μL of fluorescein (116.9 nM) and 90 μL of 2,2’-azobis(2-amidinopropane) dihydrochloride (AAPH) (40 mM). Finally, the fluorescence was recorded every 2 min for 150 min at excitation and emission wavelengths of 485 and 520 nm, respectively. All reactions were performed at 37 °C. The results were expressed as μmol Trolox equivalent (TE)/μmol of peptide. Quantification and interpretation of the data were done by Gen5 software, version 1.1 (BioTek Instruments, Winooski, VT, USA).

[4] = Trolox equivalent antioxidant capacity (TEAC, ABTS radical cation); conditions: 734 nm, 6 min, mean ± SD, n = 9
Experimental: The Trolox equivalent antioxidant capacity (TEAC) analysis was performed as described by Sanchez-Velazquez et al. In order to produce ABTS (2,2’-azino-bis(3-ethylbenzthiazoline-6-sulfonic acid) radical cation (ABTS^ ●+ ), ABTS (7 mM) were mixed with potassium persulfate (2.45 mM) in the dark at room temperature (RT 18–21 °C) for 16 h. […] Finally, the reaction was measured at 0 and 6 min at 734 nm (SPARK-10M, TECAN, Switzerland). The percentage of inhibition was calculated as follows: %TEACinhibition=Abs sample0min−Abs sample6min/Abs sample0min−(Abs blank0min−Abs blank6min/Abs blank0min)×100

Fe^2+ chelation assay = conditions: 125 μM; ferrozine, pH 4.9, 37 °C, 10 min; mean ± SD, n = 9
Experimental: Fe^2+ chelation assay was measured according to Sanchez-Velazquez et al. with slightly modifications. 25 μL of sample (synthetic peptides, […]) or positive control (EDTA, 0.1 μg/μL) was added to 225 μL of buffer (sodium acetate, 100 mM, pH 4.9), then 15 μL of iron solution (0.1%, w/v) and 9 μL of ferrozine (40 mM) were added to start the reaction. For the blank well, 250 μL of buffer was added to the iron solution and ferrozine. The reaction was incubated 10 min at 37 °C and then read at 562 nm (SPARK-10M, TECAN, Switzerland). Fe^2+ chelating activity was calculated as described previously for copper.

[5] = test system: 15-LOX enzyme (soybean lipoxygenase); test: Lipoxygenase inhibitor screening assay (LOX); assay type: biochemical; conditions: 31.25 μM; linoleic acid 1 mM, RT, 490 nm
Experimental: Lipoxygenase inhibitory activity assay (LOX) was determined following the manufacturer’s instructions (#760700). Thus, peptide concentrations (31.25–125 μM) were prepared with the assay buffer and tested in triplicate. First, 10 μL of the peptides at each concentration was mixed with 90 μL of 15-LOX enzyme (soybean lipoxygenase) in a 96-well plate. Then, three wells each contained assay buffer as blank (without enzyme), assay buffer as vehicle (with enzyme), and 15-LOX as positive control. Afterward, 10 μL of linoleic acid (1 mM) (substrate) was added to all wells and shaken for 10 min at RT. Finally, 100 μL of chromogen was added to all wells, and the plate was sealed and shaken for an additional 5 min at RT. The final reaction was measured at 490 nm, and the percentage of inhibition was calculated as. %inhibition=[1−Correctedvaluesofpeptide/Correctedvaluesofvehicle]×100

[6] = test system: angiotensin I converting enzyme; test: ACE-I inhibitory activity (fluorometric kit CS0002); assay type: biochemical
Experimental: ACE-I inhibitory assay was determined by ACE-I activity assay kit (fluorometric, CS0002). This assay is based on the hydrolysis of angiotensin I by ACE to yield angiotensin II. Briefly, all reagents were diluted in the assay buffer, and a total of 50 μL of peptide sample, positive control (captopril PHR1307), and assay buffer (blank) were added to a 96-well black plate. The standard was added at 0, 0.1, 0.2, 0.3, 0.4, 0.5, 0.6, and 0.8 nmol and adjusted to a final volume of 100 μL. […] Finally, fluorescence (λex, 320 nm; λem, 405 nm) was measured in five cycles for 5 min. Linear regressions were determined to calculate the enzymatic activity for each sample per concentration. Thus, one unit was defined as the amount of enzyme that releases 1 nmol of fluorescent substrate in 1 min at 37 °C. Finally, the inhibition (%) of each peptide and positive control was determined using regression analysis of the corresponding dose–response curves.

ACE-I = conditions: pearl garlic peptides; ref Yudho-Sutopo et al. [121]; read-out: ACE-I inhibition IC50; cited from earlier work
From the text: Yudho-Sutopo et al. reported the ACE-I inhibitory activity of four synthetic peptides from pearl garlic (DHSTAVW, KLAKVF, KLSTAASF, and KETPEAHVF). […] According to Yudho-Sutopo et al., the hydrophobic amino acid in the C-terminal and amino acids with a positively charged side-chain amino group, like in DHSTAVW, are determinants in the inhibition of ACE-I. Furthermore, a study by Zheng et al. reported an ACE-I inhibitory peptide – RGQVIYVL – from Chenopo ...

LOX = conditions: cited from earlier work; for anti-LOX activity (inhibition): 1 mg/mL, velvet antler blood peptides, ref Ding et al. [119]
From the text: Ding et al. evaluated eight peptides from velvet antler blood (LFP, FPH, EHF, VGYP, FSAL, LSQKFPK, HHGGEFTPV, and LKECCDKPV) for anti-LOX activity. […] Karas et al. reported six LOX-inhibitory peptides from millet grain (RLARAGLAQ, YGNPVGGVGH, EQGFLPGP ...

[7] = 125 μM, fluorometric kit, 37 °C, mean ± SD, n = 9
[8] = 250 μM, fluorometric kit, 37 °C, mean ± SD, n = 9
[9] = 500 μM, fluorometric kit, 37 °C, mean ± SD, n = 9

α-amylase inhibition ([1]; 300 μM): 12.20 ± 1.67^c % | α-amylase inhibition ([1]; 400 μM): 11.43 ± 2.04^c % | α-amylase inhibition ([1]; 500 μM): 6.66 ± 0.38^d % | α-glucosidase inhibition ([2]; 300 μM): 8.48 ± 0.94^c % | α-glucosidase inhibition ([2]; 400 μM): 8.33 ± 0.94^c % | α-glucosidase inhibition ([2]; 500 μM): 14.86 ± 0.89^a % | LOX inhibition [5]: 22.64% | inhibition [6, 7]: 21.1 ± 0.19% | ACE-I inhibition [6, 8]: 24.1 ± 0.18^c % | ACE-I inhibition [6, 9]: 24.3 ± 0.15^c %
Molecule: YDDER [quinoa 11S globulin peptide, custom-synthesized by GenScript, purity 95%]
DPP-IV inhibition (human DPP-IV; 125 μM): ND (no inhibitory effect was observed at the given concentration) | DPP-IV inhibition (human DPP-IV; 250 μM): ND (no inhibitory effect was observed at the given concentration) | DPP-IV inhibition (human DPP-IV; 500 μM): 3.44 ± 0.50^d % | ORAC [3]: 0.24 μmol TE/μmol peptide | ORAC ([3]; mean ± SD, n = 9): 0.24 ± 0.01^b μM TE/μM Peptide | TEAC inhibition (ABTS^●+ inhibition) ([4]; 250 μM): 7.45 ± 0.19% | TEAC inhibition (ABTS^●+ inhibition) ([4]; 500 μM): 8.7 ± 0.50% | Fe^2+ chelating activity (Fe^2+ chelation assay): 8.8 ± 1.0%

Molecule: DHSTAVW [synthetic peptide from pearl garlic, Yudho-Sutopo et al]
IC50 (ACE-I): 2.8 µM

Molecule: LSQKFPK [peptide from velvet antler blood, Ding et al]
anti-LOX activity (inhibition) (LOX): ≤ 12%

Molecule: KLSTAASF [synthetic peptide from pearl garlic, Yudho-Sutopo et al]
IC50 (ACE-I): 172 µM

Molecule: GQLGEHGGAGMG
LOX inhibition (LOX; millet grain peptides, ref Karas et al. [120]): 50%

Molecule: VGYP [peptide from velvet antler blood, Ding et al]
anti-LOX activity (inhibition) (LOX): ≤ 12%

α-glucosidase inhibition ([2]; 300 μM): 7.72 ± 0.95^c % | inhibition ([2]; 400 μM): 10.4 ± 0.93% | α-glucosidase inhibition ([2]; 500 μM): 11.93 ± 0.92^b % | LOX inhibition [5]: 16.20% | ACE-I inhibition [6, 7]: 17.20 ± 0.28^d % | ACE-I inhibition [6, 8]: 31.7 ± 2.40^b % | ACE-I inhibition [6, 9]: 53.0 ± 1.41^a %
Molecule: NIYQIS [quinoa 11S globulin peptide, custom-synthesized by GenScript, purity 95%]
α-amylase inhibition ([1]; 300 μM): ND (no inhibitory effect was observed at the given concentration) | α-amylase inhibition ([1]; 400 μM): ND (no inhibitory effect was observed at the given concentration) | α-amylase inhibition ([1]; 500 μM): did not show significant α-amylase inhibition; also recorded: ND (no inhibitory effect was observed at the given concentration) | DPP-IV inhibition (human DPP-IV; 125 μM): ND (no inhibitory effect was observed at the given concentration) | DPP-IV inhibition (human DPP-IV; 250 μM): 12.22 ± 0.50^b % | DPP-IV inhibition (human DPP-IV; 500 μM): 16.36 ± 0.70^a % | ORAC [3]: 0.75 μmol TE/μmol peptide | ORAC ([3]; mean ± SD, n = 9): 0.75 μM TE/μM Peptide and 0.75 ± 0.02^a μM TE/μM Peptide | TEAC inhibition (ABTS^●+ inhibition) ([4]; 125 μM): 7.87 ± 0.10% | TEAC inhibition (ABTS^●+ inhibition) ([4]; 250 μM): 7.39 ± 0.19% | TEAC inhibition (ABTS^●+ inhibition) ([4]; 500 μM): 8.19 ± 0.38% | Fe^2+ chelating activity (Fe^2+ chelation assay): 9.04 ± 0.96%

Molecule: KETPEAHVF [synthetic peptide from pearl garlic, Yudho-Sutopo et al]
IC50 (ACE-I): 455 µM

ACE-I inhibition, reference inhibitor ([6]; 50 µM): 80.1%
Molecule: C[C@H](CS)C(=O)N1CCC[C@H]1C(=O)O [commercial ACE-I inhibitor, reference compound]

Molecule: LKECCDKPV [peptide from velvet antler blood, Ding et al]
anti-LOX activity (inhibition) (LOX): ≤ 12%

Molecule: HHGGEFTPV [peptide from velvet antler blood, Ding et al]
anti-LOX activity (inhibition) (LOX): ≤ 12%

Molecule: KLAKVF [synthetic peptide from pearl garlic, Yudho-Sutopo et al]
IC50 (ACE-I): 77.2 µM
